Experimental data from BindingDB's records for doi:10.1021/acs.jmedchem.0c00964 (Philipps-University, 2020).

Biological target: T1, Orexin/Hypocretin receptor type 1 (Homo sapiens, UniProt O43613)
T1 sequence (O43613 whole entry): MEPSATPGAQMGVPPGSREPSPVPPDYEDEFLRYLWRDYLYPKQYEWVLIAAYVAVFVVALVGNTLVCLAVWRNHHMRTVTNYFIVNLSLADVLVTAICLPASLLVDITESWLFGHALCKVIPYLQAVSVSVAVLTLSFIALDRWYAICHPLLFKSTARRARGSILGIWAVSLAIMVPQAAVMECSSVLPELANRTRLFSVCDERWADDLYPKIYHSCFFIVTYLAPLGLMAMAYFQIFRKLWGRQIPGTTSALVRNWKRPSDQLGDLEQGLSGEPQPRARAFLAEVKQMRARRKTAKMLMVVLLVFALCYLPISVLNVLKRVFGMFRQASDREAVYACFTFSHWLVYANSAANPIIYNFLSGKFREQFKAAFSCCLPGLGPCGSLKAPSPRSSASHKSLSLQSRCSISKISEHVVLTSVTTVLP
Assay: Displacement of [3H]-[…] from human orexin 1 receptor expressed in CHO cells incubated for 2 hrs by whole cell radioligand binding assay

Row | SMILES | Ki
1 | O=C1CCCN1c1cccc(C(=O)N(Cc2ccc(F)cc2)C2CC2)c1 | 32.4 µM
2 | COc1ccc(C(=O)Oc2cc(=O)n(-c3ccccc3)c3c2CCCC3)cc1 | 24.5 µM
3 | O=C1NC(=O)C(=Cc2c(OCc3ccccc3F)ccc3ccccc23)C(=O)N1 | 33.1 µM
4 | O=C(/C=C/c1cccc(F)c1)N1CCOc2c(cc(-c3cccnc3)cc2OC[C@H]2CCCCO2)C1 | 21.4 µM
5 | O=C(c1sc2cccc(F)c2c1Cl)N1CCN(Cc2ccco2)CC1 | 43.7 µM
